Laboratory results as given in ChEMBL document CHEMBL1123301, “Structure-activity study of 6-substituted 2-pyranones as inactivators of alpha-chymotrypsin” (J Med Chem, 1986).
Values belong to the molecule of their own block, whether it stands above or below them.

Assays:
[1] = target: Chymotrypsinogen A (Bos taurus) (UniProt P00766)
[2] = target: Chymotrypsinogen A (Bos taurus) (UniProt P00766); test: Binding affinity towards alpha-chymotrypsin from bovine pancreas; The compound was too insoluble to obtain reliable data
[3] = target: Chymotrypsinogen A (Bos taurus) (UniProt P00766); remark: listed apart in the source
[4] = target: Chymotrypsinogen A (Bos taurus) (UniProt P00766); remark: listed apart in the source
[5] = Binding affinity towards alpha-chymotrypsin from bovine pancreas; parameters: species or system Bos taurus

SMILES: CCc1ccc(=O)oc1Cl
- K inact [1]: 0.00551 min⁻¹

SMILES: CCCCc1ccc(=O)oc1Cl
- K inact [1]: 0.00217 min⁻¹

SMILES: O=c1occcc1-c1ccccc1
- K inact [4]: No inactivation
- Ki [5]: 160 µM

SMILES: O=c1ccc(-c2ccccc2)c(Cl)o1
- K inact [4]: No inactivation

SMILES: O=c1ccc(-c2ccccc2)co1
- K inact [4]: No inactivation

More lines, main results first:

- kinact [3]: 0.0239 min⁻¹
SMILES: O=c1oc(Br)ccc1Cc1ccc2ccccc2c1
- Ki [2]: The compound was too insoluble to obtain reliable data

- K inact [4]: No inactivation
SMILES: O=c1oc(Cl)ccc1-c1ccccc1
